Test results published in the supplement of paper PMC10307832.

Columns and labels:
Assay in all cases: relative viability (nuclei count vs DMSO), 5 days (fraction); higher = more cells survive
CAP-232 + Trametinib = compound: C[C@H]([C@@H](C(=O)N)NC(=O)[C@@H]1CSSC[C@@H](C(=O)N[C@H](C(=O)N[C@@H](C(=O)N[C@H](C(=O)N1)CCCCN)CC2=CNC3=CC=CC=C32)CC4=CC=C(C=C4)O)NC(=O)[C@@H](CC5=CC=CC=C5)N)O [CAP-232] + CC(=O)Nc1cccc(-n2c(=O)n(C3CC3)c(=O)c3c(Nc4ccc(I)cc4F)n(C)c(=O)c(C)c32)c1 [Trametinib] (partner 0.02 µM)
In short: (§1)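 Relative viability is defined as nuclei in treated wells over nuclei in vehicle wells. Duplicate plates were run and medians reported. Lung cancer cell lines in 1536-well plates were dosed by pin tool one day after seeding, with one drug or with a fixed anchor-drug dose plus five library-drug doses (not always all listed) in √10 steps, and nuclei were counted after 5 days.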

CAP-232 + AZD7762 = compound: C[C@H]([C@@H](C(=O)N)NC(=O)[C@@H]1CSSC[C@@H](C(=O)N[C@H](C(=O)N[C@@H](C(=O)N[C@H](C(=O)N1)CCCCN)CC2=CNC3=CC=CC=C32)CC4=CC=C(C=C4)O)NC(=O)[C@@H](CC5=CC=CC=C5)N)O [CAP-232] + NC(=O)Nc1cc(-c2cccc(F)c2)sc1C(=O)N[C@H]1CCCNC1 [AZD7762] (partner 0.2 µM)
In short: as §1

CAP-232 + Tozasertib = compound: C[C@H]([C@@H](C(=O)N)NC(=O)[C@@H]1CSSC[C@@H](C(=O)N[C@H](C(=O)N[C@@H](C(=O)N[C@H](C(=O)N1)CCCCN)CC2=CNC3=CC=CC=C32)CC4=CC=C(C=C4)O)NC(=O)[C@@H](CC5=CC=CC=C5)N)O [CAP-232] + Cc1cc(Nc2cc(N3CCN(C)CC3)nc(Sc3ccc(NC(=O)C4CC4)cc3)n2)n[nH]1 [Tozasertib] (partner 0.1 µM)
In short: as §1

CAP-232 + Palbociclib = compound: C[C@H]([C@@H](C(=O)N)NC(=O)[C@@H]1CSSC[C@@H](C(=O)N[C@H](C(=O)N[C@@H](C(=O)N[C@H](C(=O)N1)CCCCN)CC2=CNC3=CC=CC=C32)CC4=CC=C(C=C4)O)NC(=O)[C@@H](CC5=CC=CC=C5)N)O [CAP-232] + CC(=O)c1c(C)c2cnc(Nc3ccc(N4CCNCC4)cn3)nc2n(C2CCCC2)c1=O [Palbociclib] (partner 0.5 µM)
In short: as §1

CAP-232 + Dasatinib = compound: C[C@H]([C@@H](C(=O)N)NC(=O)[C@@H]1CSSC[C@@H](C(=O)N[C@H](C(=O)N[C@@H](C(=O)N[C@H](C(=O)N1)CCCCN)CC2=CNC3=CC=CC=C32)CC4=CC=C(C=C4)O)NC(=O)[C@@H](CC5=CC=CC=C5)N)O [CAP-232] + Cc1nc(Nc2ncc(C(=O)Nc3c(C)cccc3Cl)s2)cc(N2CCN(CCO)CC2)n1 [Dasatinib] (partner 0.075 µM)
In short: as §1

| Cell Line | relative viability (CAP-232 + Trametinib; first compound 0.4 µM) | relative viability (CAP-232 + Trametinib; first compound 1.265 µM) | relative viability (CAP-232 + Trametinib; first compound 4 µM) | relative viability (CAP-232 + Trametinib; first compound 12.65 µM) | relative viability (CAP-232 + AZD7762; first compound 0.4 µM) | relative viability (CAP-232 + AZD7762; first compound 1.265 µM) | relative viability (CAP-232 + AZD7762; first compound 4 µM) | relative viability (CAP-232 + AZD7762; first compound 12.65 µM) | relative viability (CAP-232 + Tozasertib; first compound 0.4 µM) | relative viability (CAP-232 + Tozasertib; first compound 1.265 µM) | relative viability (CAP-232 + Tozasertib; first compound 4 µM) | relative viability (CAP-232 + Tozasertib; first compound 12.65 µM) | relative viability (CAP-232 + Palbociclib; first compound 0.4 µM) | relative viability (CAP-232 + Palbociclib; first compound 1.265 µM) | relative viability (CAP-232 + Palbociclib; first compound 4 µM) | relative viability (CAP-232 + Palbociclib; first compound 12.65 µM) | relative viability (CAP-232 + Dasatinib; first compound 0.4 µM) | relative viability (CAP-232 + Dasatinib; first compound 1.265 µM) | relative viability (CAP-232 + Dasatinib; first compound 4 µM) | relative viability (CAP-232 + Dasatinib; first compound 12.65 µM) |
| --- | --- | --- | --- | --- | --- | --- | --- | --- | --- | --- | --- | --- | --- | --- | --- | --- | --- | --- | --- | --- |
| A-427 | 0.615 | 0.716 | 0.795 | 0.684 | 0.72 | 0.754 | 0.811 | 0.746 | 0.164 | 0.186 | 0.149 | 0.207 | 0.528 | 0.554 | 0.508 | 0.467 | 0.646 | 0.467 | 0.679 | 0.76 |
| NCI-H522 | 0.772 | 0.856 | 0.607 | 0.726 | 0.876 | 1.08 | 0.926 | 1.04 | 0.555 | 0.58 | 0.503 | 0.544 | 0.982 | 0.929 | 1.05 | 0.848 | 1.1 | 0.73 | 0.914 | 0.735 |
| ABC-1 | – | – | – | – | 0.883 | 0.541 | 0.803 | 0.692 | 0.155 | 0.143 | 0.179 | 0.148 | 0.641 | – | 0.691 | 0.513 | 0.582 | 0.562 | 0.53 | 0.448 |
| SK-LU-1 | 0.45 | 0.477 | 0.717 | 0.492 | – | – | – | – | 0.309 | 0.314 | 0.289 | 0.203 | 0.375 | 0.398 | 0.405 | 0.364 | 0.174 | 0.176 | 0.158 | 0.17 |
| HCC-44 | 0.997 | 1.02 | 1.06 | 1.04 | 0.995 | 1.06 | 1.04 | 0.986 | 0.919 | 0.95 | 1.18 | 1.09 | 1 | 1.05 | 0.92 | 0.937 | – | – | – | – |
| SW 1573 | 0.503 | 0.54 | 0.643 | 0.191 | – | – | – | – | 0.185 | 0.207 | 0.189 | 0.126 | 0.313 | 0.392 | 0.406 | 0.201 | 0.416 | 0.493 | 0.603 | 0.0706 |
| NCI-H1703 | – | – | – | – | 0.124 | – | 0.143 | 0.146 | – | – | – | – | – | – | – | – | – | – | – | – |
| NCI-H2023 | 0.656 | 0.555 | 0.48 | 0.205 | – | – | – | – | 0.348 | 0.332 | 0.379 | 0.139 | 0.377 | 0.353 | 0.346 | 0.157 | 0.696 | 0.598 | 0.608 | 0.137 |
| NCI-H661 | 0.523 | 0.536 | 0.578 | 0.377 | – | – | – | – | 0.367 | 0.372 | 0.347 | 0.329 | 0.415 | 0.403 | 0.433 | 0.35 | 0.971 | 0.663 | 0.96 | 0.648 |
| COR-L 105 | 0.371 | 0.414 | 0.395 | 0.377 | – | – | – | – | 0.346 | 0.387 | 0.379 | 0.323 | 0.395 | 0.401 | 0.384 | 0.387 | 0.337 | 0.352 | 0.273 | 0.249 |
| NCI-H2228 | 0.473 | 0.523 | 0.715 | 0.414 | – | – | – | – | 0.257 | 0.28 | 0.195 | 0.263 | 1.06 | 0.803 | 0.971 | 0.632 | 0.482 | 0.565 | 0.479 | 0.365 |
| NCI-H596 | 0.901 | 0.675 | 0.851 | 0.765 | 1.1 | 1.13 | 1.05 | 1.09 | 0.962 | 1.04 | 0.886 | 0.821 | – | – | – | – | 0.502 | 0.615 | 0.536 | 0.615 |
| NCI-H1650 | 0.631 | 0.557 | 0.54 | 0.215 | – | – | – | – | 0.427 | 0.38 | 0.391 | 0.213 | 0.306 | 0.304 | 0.38 | 0.243 | 0.344 | 0.27 | 0.282 | 0.231 |
| NCI-H1792 | 0.516 | 0.443 | 0.474 | 0.415 | 0.892 | 0.715 | 0.793 | 0.757 | – | – | – | – | 0.893 | 0.694 | 0.669 | 0.545 | 0.811 | 0.743 | 0.95 | 0.78 |
| SK-MES-1 | 0.543 | 0.549 | 0.541 | 0.524 | – | – | – | – | 0.903 | 0.893 | 0.905 | 0.774 | 0.324 | 0.292 | 0.278 | 0.258 | 0.339 | 0.317 | 0.341 | 0.203 |
| NCI-H1563 | – | – | – | – | – | – | – | – | – | – | – | – | – | – | – | – | 0.449 | 0.448 | 0.477 | 0.432 |
| COR-L23 | 0.455 | 0.597 | 0.604 | 0.281 | – | – | – | – | 0.176 | 0.194 | 0.187 | 0.193 | 0.338 | 0.29 | 0.304 | 0.255 | 0.506 | 0.575 | 0.531 | 0.342 |
| UMC-11 | 0.65 | 0.546 | 0.719 | 0.456 | – | – | – | – | 0.202 | 0.191 | 0.214 | 0.17 | 0.346 | 0.349 | 0.311 | 0.341 | 0.621 | 0.494 | 0.587 | 0.316 |
